Experimental data published in US9006221B2, “Method of modulating ship activity” (H. Lee Moffitt Cancer Center and Reserach Institute, Inc., priority 2008, dated 2015).

How the values were obtained:
[1] = tested on: KG1 cells; experiment: Apoptosis of KG1 cells (Western blot, Annexin V/PI FACS); format: cell-based, human
Experimental: (A) SHIP1 expression in KG1 and MG63 cells was determined by Western blotting (top). Membranes were reprobed with antibodies against b-actin to confirm equal loading (lower panel). One representative blot of 2 individual experiments is shown. (B) KG1 and MG63 cells were plated in duplicate in 96 well plates, and treated for 36 hours with increasing concentrations of the 3α-aminocholestane. Cell viability was assessed by MTT assay. Results represent the mean of three individual experiments. (C) KG1 cells were treated with increasing concentrations of 3α-aminocholestane for 36 hours and hallmarks of apoptosis were identified in cell lysates by Western Blot analysis. Membranes were probed with antibodies against PARP and cleaved PARP (cPARP, upper panel) and cleaved Caspase 3 (cCaspase 3, middle panel). Equal protein loading was confirmed by reprobing the blots with anti-b-actin antibodies (lower panel). A representative example of 2 independent experiments is shown. (D) KG1 cells were treated with increasing concentrations of 3α-aminocholestane, and the percentage of AnnexinV and PI positive cells was determined by FACS analysis. A representative example of 2 individual experiments is shown.
It was a concern that SHIP1 inhibitors might potentially enhance the survival and growth of blood cell cancers. Conversely, as discussed above, SHIP1 inhibition could also […] Akt activation and therefore might also antagonize the survival of malignant blood cells. The two possibilities were tested by treating the AML cell line (KG-1) that expresses SHIP1 (FIG. 17a) with 3α-aminocholestane. […]
Preparation of cell lysates and Western blotting: Cells were counted, centrifuged and resuspended in Laemmli sample buffer. […]
Annexin V staining Annexin V/Propidium Iodide (PI) staining was performed using the Annexin V-FITC apoptosis detection kit from BD Pharmingen (Sharon, Mass.) per the manufacturer's instructions. […] Fluorescence was determined by flow cytometry (LSR II, Becton Dickinson Medical Systems, Sharon, Mass.).

[2] = tested on: human PBMC; experiment: Human one-way MLR with pre-treated PBMC stimulators; format: cell-based; details: stimulator PBMC pre-treated 24 hr with 9.4 μM
Description: FACS quantitation of Mac1^+Gr1^+ MIR cells in spleen (A) and lymph node (B) of C57BL/6 mice treated with the SHIP1 inhibitor (Compound), vehicle (Vehicle) or unmanipulated controls (Normal) as indicated. (C) Mixed-Leukocyte-Reactions (MLR) where splenocytes from SHIP1 inhibitor-treated C57BL6 (H2b) mice were used as stimulators for BALB/C (H2d) responders. In parallel splenocytes from either unmanipulated (Normal) or Vehicle treated C57BL6 mice were used as positive controls for the MLR. […] (D) Human PBMC were pre-treated for 24 hr with 3α-aminocholestane (Compound) or vehicle, irradiated and then used as stimulators for untreated PBMC from a different donor in a one-way MLR. […] Absolute peripheral blood granulocyte numbers were determined by an automated blood cell analyzer. […]
Mixed leukocyte reactions (MLR): Following RBC lysis, irradiated (2000 Rads) BL6 splenocytes (stimulators) at 8×10^5 cells/well were combined with BALB/c splenocytes (responders) at 4×10^5 cells/well in a one-way MLR assay. […] Incorporated [3H]thymidine was quantitated using a Packard TopCount NXT. Specific [3H]thymidine incorporation into genomic DNA was calculated as the average of the mean (±SEM) of sextuplicate wells. […]

Structure (SMILES): CC(C)CCC[C@@H](C)[C@H]1CC[C@H]2[C@@H]3CC[C@H]4C[C@H](N)CC[C@]4(C)[C@H]3CC[C@]12C [NSC23922, (3R,5S,8R,9S,10S,13R,14S,17R)-10,13-dimethyl-17-[(2R)-6-methylheptan-2-yl]-2,3,4,5,6,7,8,9,11,12,14,15,16,17-tetradecahydro-1H-cyclopenta[a]phenanthren-3-amine]
- frequency of AnnexinV+ cells ([1]; KG1, 36 hours, FACS): increased frequency
- cleavage of PARP and Caspase 3 ([1]; KG1, 36 hours, Western blot): increased cleavage
- activation of Akt/PKB ([1]; KG1, Western blot): decreased activation
- ability of pre-treated human PBMC to prime allogeneic responses by T cells from an unrelated donor [2]: significantly reduces
